Laboratory results: patent publication EP0326329B1, “Quinazoline derivatives useful as insecticides” (Dow AgroSciences LLC, priority 1988, dated 1989)

What was measured:
Assay type in all cases: in vivo
[1] = test system: Southern corn rootworm (Diabrotica undecimpuctata howardi Barber); assay: Mite/insect screen, soil treatment (CRW); conditions: Diabrotica, percent mortality, soil treatment, read-out: CRW RESULTS %; for mortality at 12 ppm: CRW rate 12.00 ppm; for mortality at 24 ppm: CRW rate 24.00 ppm
Experimental: (§1) The compounds of Examples 1-203 were tested for miticidal and insecticidal activity in the following mite/insect screen.
(§2) Each test compound was formulated by dissolving the compound in acetone/alcohol (50:50) mixture containing 23 g of "TOXIMUL R" (sulfonate/nonionic emulsifier blend) and 13 g of "TOXIMUL S" (sulfonate/nonionic emulsifier blend) per liter. These mixtures were then diluted with water to give the indicated concentrations.
Activity on Southern corn rootworm (Diabrotica undecimpuctata howardi Barber) was evaluated by adding two ml of tap water, a presoaked corn seed, and 15 g of dry sandy soil to a one ounce plastic container. The soil was treated with 1 mL of test solution containing a pre-determined concentration of test compound. After six to 12 hours of drying, five 2-3 instar corn rootworm larvae were added to the individual cups, which were then capped and held at 23°C.
(§3) After standard exposure periods, percent mortality and phytotoxicity were evaluated. […]

[2] = test system: Pseudoperonospora cubensis (downy mildew); assay: Greenhouse Test 1, foliar spray fungicide screen (DOWN MDEW), host squash; conditions: disease control rating, 400 ppm (+++ at 100 ppm)
[3] = test system: Pyricularia oryzae (rice blast); conditions: disease control rating, foliar spray, host rice; 400 ppm (+++ at 100 ppm)
[4] = test system: Puccinia recondita tritici (leaf rust); assay: Greenhouse Test 1, foliar spray fungicide screen (LEAF RUST), host wheat; conditions: disease control rating, 400 ppm (+++ at 100 ppm)
[5] = test system: melon aphids (Aphis gossypii Glover); assay: Mite/insect screen, sprayed squash cotyledons (MA); conditions: Aphis gossypii, percent mortality, read-out: MA RESULTS %; for mortality at 200 ppm: spray rate 200 ppm; for mortality at 400 ppm: spray rate 400 ppm
Experimental: as §1, §2
(§4) Other plants in the same treatment pot were left uninfested. The leaves were then sprayed with 5 ml of test solution using a DeVilbiss atomizing sprayer at 10 psi. Both surfaces of the leaves were covered until runoff, and then allowed to dry for one hour. Two uninfested leaves were then excised and placed into a Petri dish containing larval southern armyworm (Spodopetra eridania Cramer).
as §3

[6] = test system: Erysiphe graminis tritici (powdery mildew); assay: Greenhouse Test 1, foliar spray fungicide screen (POWD MDEW), host wheat; conditions: disease control rating, 400 ppm (+++ at 100 ppm)
[7] = test system: southern armyworm (Spodopetra eridania Cramer); assay: Mite/insect screen, sprayed squash leaves (SAW); conditions: Spodoptera eridania, percent mortality, read-out: SAW RESULTS %; for mortality at 200 ppm: spray rate 200 ppm; for mortality at 400 ppm: spray rate 400 ppm
Experimental: as §1, §2, §4, §3

[8] = test system: Twospotted spider mites (Tetranychus urticae Koch); assay: Mite/insect screen, sprayed squash cotyledons (SM); conditions: Tetranychus urticae, percent mortality, read-out: SM RESULTS %; for mortality at 200 ppm: spray rate 200 ppm; for mortality at 400 ppm: spray rate 400 ppm
Experimental: as §1, §2, §4, §3

[9] = test system: Botrytis cinerea (gray mold); assay: Greenhouse Test 1, foliar spray fungicide screen (GRAY MOLD), host grape berries; conditions: disease control rating, 400 ppm (+++ at 100 ppm)

| SMILES | mortality at 12 ppm [1] [%] | mortality at 24 ppm [1] [%] | DOWN MDEW [2] | RICE BLAST [3] | LEAF RUST [4] | mortality at 200 ppm [5] [%] | mortality at 400 ppm [5] [%] | POWD MDEW [6] | mortality at 200 ppm [7] [%] | mortality at 400 ppm [7] [%] | mortality at 200 ppm [8] [%] | mortality at 400 ppm [8] [%] | GRAY MOLD [9] |
| --- | --- | --- | --- | --- | --- | --- | --- | --- | --- | --- | --- | --- | --- |
| CC(C)(C)c1ccc(CCCOc2ncnc3ccccc23)cc1 [Example 138, 4-[3-[4-(1,1-dimethylethyl)phenyl]propoxy]quinazoline] | 0 | 0 | ++ (++ = 90-100% control at 400 ppm) | + (+ = 20-89% control at 400 ppm) | - (- = 0-19% control at 400 ppm) | 30 | 60 | ++ (++ = 90-100% control at 400 ppm) | 0 | 0 | 0 | 80 | - (- = 0-19% control at 400 ppm) |
| Cc1cccc(CCOc2ncnc3ccccc23)c1 [Example 97, 4-[2-(3-methylphenyl)ethoxy]quinazoline] | – | 0 | ++ (++ = 90-100% control at 400 ppm) | ++ (++ = 90-100% control at 400 ppm) | +++ (+++ = 90-100% control at 100 ppm) | – | 0 | +++ (+++ = 90-100% control at 100 ppm) | – | 0 | – | 0 | - (- = 0-19% control at 400 ppm) |
| Fc1cccc2c(OCCc3ccccc3)ncnc12 [Example 95, 8-fluoro-4-(2-phenylethoxy)quinazoline] | 0 | 0 | +++ (+++ = 90-100% control at 100 ppm) | - (- = 0-19% control at 400 ppm) | +++ (+++ = 90-100% control at 100 ppm) | 80 | 0 | +++ (+++ = 90-100% control at 100 ppm) | 0 | 0 | 0 | 0 | - (- = 0-19% control at 400 ppm) |
| OC(CNc1ncnc2ccccc12)c1ccc2ccccc2c1 (stereo not drawn) [Example 105, α-[(4-quinazolinylamino)methyl]-2-naphthalenemethanol] | – | 0 | - (- = 0-19% control at 400 ppm) | + (+ = 20-89% control at 400 ppm) | ++ (++ = 90-100% control at 400 ppm) | – | 0 | - (- = 0-19% control at 400 ppm) | – | 0 | – | 0 | - (- = 0-19% control at 400 ppm) |
| c1ccc(Oc2ccc(CCCc3ncnc4ccccc34)cc2)cc1 [Example 164, 4-[3-(4-phenoxyphenyl)propyl]quinazoline] | 0 | 0 | +++ (+++ = 90-100% control at 100 ppm) | +++ (+++ = 90-100% control at 100 ppm) | +++ (+++ = 90-100% control at 100 ppm) | 80 | 80 | + (+ = 20-89% control at 400 ppm) | 40 | 40 | 80 | 20 | - (- = 0-19% control at 400 ppm) |
| COc1ccc(CCOc2ncnc3ccccc23)cc1OC [Example 73, 4-[2-(3,4-dimethoxyphenyl)ethoxy]quinazoline] | – | 100 | +++ (+++ = 90-100% control at 100 ppm) | - (- = 0-19% control at 400 ppm) | +++ (+++ = 90-100% control at 100 ppm) | – | 0 | ++ (++ = 90-100% control at 400 ppm) | – | 0 | – | 0 | - (- = 0-19% control at 400 ppm) |
| CCOc1ccc(CCOc2ncnc3ccccc23)cc1 [Example 15, 4-[2-(4-ethoxyphenyl)ethoxy]quinazoline] | – | 0 | +++ (+++ = 90-100% control at 100 ppm) | +++ (+++ = 90-100% control at 100 ppm) | +++ (+++ = 90-100% control at 100 ppm) | – | 0 | +++ (+++ = 90-100% control at 100 ppm) | – | 0 | – | 0 | - (- = 0-19% control at 400 ppm) |
| Cc1cccc2ncnc(NCCc3ccc(Cl)cc3)c12 [Example 36, N-[2-(4-chlorophenyl)ethyl]-5-methyl-4-quinazolinamine] | 0 | 0 | + (+ = 20-89% control at 400 ppm) | + (+ = 20-89% control at 400 ppm) | - (- = 0-19% control at 400 ppm) | 0 | 0 | - (- = 0-19% control at 400 ppm) | 0 | 0 | 0 | 0 | - (- = 0-19% control at 400 ppm) |
| CC(C)c1ccc(CCCOc2ncnc3ccccc23)cc1 [Example 143, 4-[3-[4-(1-methylethyl)phenyl]propoxy]quinazoline] | 0 | 0 | ++ (++ = 90-100% control at 400 ppm) | ++ (++ = 90-100% control at 400 ppm) | - (- = 0-19% control at 400 ppm) | 0 | 0 | + (+ = 20-89% control at 400 ppm) | 80 | 0 | 0 | 0 | - (- = 0-19% control at 400 ppm) |
| Clc1ccc(CCNc2ncnc3ccc(Br)cc23)cc1 [Example 37, N-[2-(4-chlorophenyl)ethyl]-6-bromo-4-quinazolinamine] | 0 | 0 | - (- = 0-19% control at 400 ppm) | - (- = 0-19% control at 400 ppm) | - (- = 0-19% control at 400 ppm) | 0 | 0 | - (- = 0-19% control at 400 ppm) | 0 | 0 | 0 | 0 | - (- = 0-19% control at 400 ppm) |
| CCCCOc1ccc(CCOc2ncnc3c(F)cccc23)cc1 [Example 156, 8-fluoro-4-[2-(4-butoxyphenyl)ethoxy]quinazoline] | 0 | 0 | +++ (+++ = 90-100% control at 100 ppm) | +++ (+++ = 90-100% control at 100 ppm) | +++ (+++ = 90-100% control at 100 ppm) | 100 | 100 | +++ (+++ = 90-100% control at 100 ppm) | 60 | 0 | 100 | 80 | - (- = 0-19% control at 400 ppm) |
| FC(F)(F)c1ccc(CCOc2ncnc3ccccc23)cc1 [Example 134, 4-[2-[4-(trifluoromethyl)phenyl]ethoxy]quinazoline] | 0 | 0 | – | +++ (+++ = 90-100% control at 100 ppm) | +++ (+++ = 90-100% control at 100 ppm) | 100 | 100 | +++ (+++ = 90-100% control at 100 ppm) | 60 | 100 | 90 | 100 | – |
| c1ccc2c(c1)Cc1cc(CCOc3ncnc4ccccc34)ccc1-2 [Example 20, 4-[2-(9H-fluoren-2-yl)ethoxy]quinazoline] | – | 100 | + (+ = 20-89% control at 400 ppm) | ++ (++ = 90-100% control at 400 ppm) | + (+ = 20-89% control at 400 ppm) | – | 100 | ++ (++ = 90-100% control at 400 ppm) | – | 60 | – | 100 | – |
